Data from patent publication US20050137130A1, “Medical treatment” (priority 2001, published 2005).

Columns and labels:
[1] = tested on: Notch signalling in CHO-N2 (N27#11) cells expressing full length human Notch2; experiment: Antagonist assay of Notch signalling from Delta-coated Dynabeads (N27#11 luciferase reporter); format: cell-based; conditions: soluble protein, N27#11 reporter cells; for inhibition of Notch signalling from Delta beads compared to control: IgG4Fc as control
Protocol: Fc tagged Notch signalling modulators were immobilised on Streptavidin-Dynabeads (CELLection Biotin Binder Dynabeads [Cat. No. 115.21] at 4.0×10^8 beads/ml from Dynal (UK) Ltd; “beads”) in combination with biotinylated α-IgG-4 (clone JDC14 at 0.5 mg/ml from Pharmingen [Cat. No. 555879]) as follows:
A volume of Dynabeads beads corresponding to the total number required was removed from a stock of beads at 4.0×10^8 beads/ml. This was washed twice with 1 ml of PBS, and resuspended in a final volume of 100 μl of PBS containing a biotinylated anti-IgG4 antibody (clone JDC14 at 0.5 mg/ml from Pharmingen [Cat. No. 555879]) in a sterile Eppendorf tube and placed on shaker at room temperature for 30 minutes. The amount of biotinylated anti-IgG4 antibody needed to coat the beads was calculated relative to the fact that 1×10^7 streptavidin Dynabeads bind a maximum of 2 μg of antibody.
After coating the beads with antibody they were washed 3 times with 1 ml of PBS and finally resuspended in mDelta1-IgG4Fc protein diluted in PBS. Beads were coated in a solution of […] protein (usually 5 μg of mDelta1-IgG4Fc protein was added per 10^7 beads to be coated) and the ligand was allowed to bind to the beads in a 1 ml volume for 2 h at room temperature (or 4° C. overnight) on a rotary shaker to keep the beads in suspension. […]
To set up the bead antagonist assay, N27#11 cells (T80 flask) were removed using 0.02% EDTA solution (Sigma), spun down and resuspended in 10 ml DMEM plus 10%(HI) FCS plus glutamine plus P/S. Ten μl of cells were counted and the cell density was adjusted to 2.0×10^5 cells/ml with fresh DMEM plus 10%(HI) FCS plus glutamine plus P/S. The reporter cells were plated out at 100 μl per well of a 96-well plate (i.e. 2×10^4 cells per well) and were placed in an incubator to settle down for at least 30 minutes. […]
The following day 150 μl of supernatant was then removed from all the wells, 100 μl of SteadyGlo™ luciferase assay reagent (Promega) was added and the resulting mixture left at room temperature for 5 minutes. […] Luminescence was then read in a TopCount™ (Packard) counter. […]

[2] = tested on: activated human CD4+ T cells; experiment: Cytokine production (ELISA) by human CD4+ T cells stimulated with anti-CD3/CD28 beads and Delta1 beads, with added soluble protein; format: cell-based; conditions: increasing amounts of soluble protein in culture medium, 3 days
Protocol: M450 Streptavidin Dynabead™ magnetic beads (Dynal, USA) were coated with an anti-human-IgG4 biotinylated monoclonal antibody (BD Bioscience, 555879) by rotating them in the presence of the antibody for 30 minutes at room temperature. Beads were washed three times with PBS (1 ml). They were further incubated with hDelta1-hIgG4 (see Example 1 above) for 2 hours at room temperature and then washed three times with PBS (1 ml).
Human peripheral blood mononuclear cells (PBMC) were purified from blood using Ficoll-Paque separation medium (Pharmacia). Briefly, 28 ml of blood were overlaid on 21 ml of Ficoll-Paque separation medium and centrifuged at 18-20° C. for 40 minutes at 400 g. PBMC were recovered from the interface and washed 3 times before use for CD4+ T cell purification.
The CD4+ T cells were incubated in triplicates in a 96-well-plate (flat bottom) at 10^5 CD4/well/200 μl in RPMI medium containing 10% FCS, glutamine, penicillin, streptomycin and β2-mercaptoethanol.
Cytokine production was induced by stimulating the cells with anti-CD3/CD28 T cell expander beads from Dynal at a 1:1 ratio (bead/cell) in the presence of beads coated with hDelta1-IgG4Fc fusion protein (Example 1 above) at a 5:1 ratio (beads/cell). In some wells, increasing amounts of soluble hdelta1-IgG4Fc fusion protein were also added.
(§1) The supernatants were removed after 3 days of incubation at 37° C./5% CO2/humidified atmosphere and cytokine production was evaluated by ELISA using Pharmingen kits OptEIA Set human IL10 (catalog No. 555157), OptEIA Set human IL-5 (catalog No. 555202) for IL-10 and IL-5 respectively according to the manufacturer's instructions.
Human peripheral blood mononuclear cells (PBMC) were purified from blood using Ficoll-Paque separation medium (Pharmacia). […]
as §1, with “(Catalog” for “(catalog”, “instructions. […]” for “instructions.”

In the case of “hDelta1-IgG4Fc: fusion protein comprising the extracellular domain of human Delta1 fused to the Fc domain of human IgG4 (SEQ ID NO: 5)”, the “inhibition of Notch signalling from Delta beads compared to control” value [1] is reported as “significant inhibition compared to control” and the “effect of added soluble protein on the IL-10 enhancement by bead-immobilised Delta1” value [2] is reported as “inhibited”.
“hJagged1EGF1&2-IgG4Fc: human jagged1 sequence up to the end of EGF2 (leader, amino terminal, DSL, EGF1+2) fused to the Fc domain of human IgG4 (SEQ ID NO: 10)” was tested, and the “inhibition of Notch signalling from Delta beads compared to control” value [1] was “significant inhibition compared to control”, the “inhibition of Notch signalling from Delta beads, compared with hDelta1-IgG4Fc” value ([1]; Delta-coated Dynabeads) was “substantially the same inhibition of Notch signalling” and the “effect of added soluble protein on the IL-10 enhancement by bead-immobilised Delta1” value [2] was “inhibited”.
